# Laboratory results reported in patent US11529337B2, “Method of treating pain” (VERTEX PHARMACEUTICALS INCORPORATED, priority 2018, dated 2022).
# Legend:
# [1] = system: subjects with pain following bunionectomy; experiment: Safety and tolerability evaluations in the bunionectomy study (Example 3)
# Description: Safety evaluations included adverse events, clinical laboratory assessments, clinical evaluation of vital signs, electrocardiograms, and physical examinations.
# [2] = system: subjects with pain following bunionectomy; experiment: Randomized, double-blind, placebo-controlled study of efficacy in subjects with pain following bunionectomy (Example 3); format: in vivo, human
# Protocol: A randomized, double-blind, placebo-controlled, 3-arm, parallel-design study to evaluate the effect of Compound 1 on acute surgical pain was conducted. Bunionectomy is a well-established, multi-dose, surgical, acute pain model. A randomized, double-blind study design was selected to avoid observer bias and reduce symptoms or outcomes arising from the subjects' knowledge of treatment. A parallel design was considered most appropriate given the acute nature of bunionectomy surgery.
# Male and female patients between the ages of 18 and 65 years (inclusive) with pain that is ≥4 on an 11-point Numeric Pain Rating Scale (NPRS) and is moderate or severe on the Verbal Categorical Rating Scale (VRS) after bunionectomy.
# Investigational Drug: Compound 1. The investigational drug was administered orally in 250 mg capsules, prepared as described in Example 2. The investigational drug was administered every 12 hours (q12 h). […]
# On the 11-point NPRS, a score of 0 denoted no pain, and a score of 10 denoted the worst pain intensity imaginable. […] Pain intensity also was recorded on the NPRS immediately before each administration of rescue medication. Pain intensity scores that were collected within 4 hours after a dose of rescue medication were taken as missing, and the missing values were imputed as the intensity recorded immediately before the administration of rescue medication. […]
# [3] = system: patients with chronic pain caused by small fiber neuropathy; experiment: Randomized, double-blind, placebo-controlled 6-week study in patients with chronic pain caused by small fiber neuropathy (Example 5); format: in vivo, human
# Protocol: A randomized, double-blind, placebo-controlled, 6-week study that evaluated treatment with Compound 1 (Treatment Arm) or placebo (Placebo Arm) in patients with chronic pain caused by small fiber neuropathy was conducted.
# Males and females between the ages of 18 and 80 years, inclusive, with small fiber neuropathy.
# Compound 1 was administered orally in 250 mg capsules, prepared as described in Example 2.
# The study included a 7-day run-in period, followed a 6-week treatment period. The subjects were randomized to a Placebo Arm (43 subjects) and a Treatment Arm (46 subjects) between the run-in period and the treatment period.
# During the run-in period, subjects reported their average pain and sleep interference to establish a baseline NRS pain score and DSIS score.
# During the treatment period, Compound 1 was administered to the subjects in the Treatment Arm every 24 hours (q24 h) in a dose of 1250 mg. Subjects in the Placebo Arm received placebo capsules.
# 11-point Numeric Rating Scale (NRS). Pain intensity was evaluated using an 11-point NRS. The 11-point scale ranged from 0 (no pain) to 10 (worst imaginable pain). From Day −7 through Week 6, subjects reported their average daily pain during the last 24 hours on the NRS via electronic diary.
# Daily Sleep Interference Scale (DSIS). Subjects reported pain interference with sleep using an 11-point scale ranging from 0 (none) to 10 (severe). […]
smiles,measurement,setting,value
"Cc1cc(F)ccc1Oc1cc(C(F)(F)F)ccc1C(=O)Nc1ccn(COP(=O)(O)O)c(=O)c1 [Compound 1, (4-(2-(4-fluoro-2-methylphenoxy)-4-(trifluoromethyl)benzamido)-2-oxopyridin-1(2H)-yl)methyl dihydrogen phosphate]","Tolerability, in words",[1]; bunionectomy study,generally well tolerated
same,Gastrointestinal adverse events,[1]; share of subjects in the arm,13%
same,"Relief of acute pain compared to placebo (SPID24), in words",[2]; Investigational Arm versus placebo,statistically significant relief of acute pain compared to placebo
same,Subjects who discontinued due to lack of efficacy,[2]; number (percentage) of subjects assigned to the arm,6 (7.5%)
same,Subjects with ≥30% reduction in weekly average of daily pain intensity on NRS,"[3]; Week 6, total = subjects with data at Week 6",45.0% (18/40)
same,Treatment difference in NRS pain intensity versus placebo at Week 1,[3]; observed as early as Week 1,greater than 1 point
